Experimental data from PMC5899197 (Journal of Virology, 2018).

Target: T1, BNeV VLPs (rMA415; VP1-major capsid and VP2-minor capsid) (Newbury agent 1, UniProt Q288N7)
T1 construct: gene ORF1
Assay type: binding

T1 sequence (Q288N7 whole entry, looked up): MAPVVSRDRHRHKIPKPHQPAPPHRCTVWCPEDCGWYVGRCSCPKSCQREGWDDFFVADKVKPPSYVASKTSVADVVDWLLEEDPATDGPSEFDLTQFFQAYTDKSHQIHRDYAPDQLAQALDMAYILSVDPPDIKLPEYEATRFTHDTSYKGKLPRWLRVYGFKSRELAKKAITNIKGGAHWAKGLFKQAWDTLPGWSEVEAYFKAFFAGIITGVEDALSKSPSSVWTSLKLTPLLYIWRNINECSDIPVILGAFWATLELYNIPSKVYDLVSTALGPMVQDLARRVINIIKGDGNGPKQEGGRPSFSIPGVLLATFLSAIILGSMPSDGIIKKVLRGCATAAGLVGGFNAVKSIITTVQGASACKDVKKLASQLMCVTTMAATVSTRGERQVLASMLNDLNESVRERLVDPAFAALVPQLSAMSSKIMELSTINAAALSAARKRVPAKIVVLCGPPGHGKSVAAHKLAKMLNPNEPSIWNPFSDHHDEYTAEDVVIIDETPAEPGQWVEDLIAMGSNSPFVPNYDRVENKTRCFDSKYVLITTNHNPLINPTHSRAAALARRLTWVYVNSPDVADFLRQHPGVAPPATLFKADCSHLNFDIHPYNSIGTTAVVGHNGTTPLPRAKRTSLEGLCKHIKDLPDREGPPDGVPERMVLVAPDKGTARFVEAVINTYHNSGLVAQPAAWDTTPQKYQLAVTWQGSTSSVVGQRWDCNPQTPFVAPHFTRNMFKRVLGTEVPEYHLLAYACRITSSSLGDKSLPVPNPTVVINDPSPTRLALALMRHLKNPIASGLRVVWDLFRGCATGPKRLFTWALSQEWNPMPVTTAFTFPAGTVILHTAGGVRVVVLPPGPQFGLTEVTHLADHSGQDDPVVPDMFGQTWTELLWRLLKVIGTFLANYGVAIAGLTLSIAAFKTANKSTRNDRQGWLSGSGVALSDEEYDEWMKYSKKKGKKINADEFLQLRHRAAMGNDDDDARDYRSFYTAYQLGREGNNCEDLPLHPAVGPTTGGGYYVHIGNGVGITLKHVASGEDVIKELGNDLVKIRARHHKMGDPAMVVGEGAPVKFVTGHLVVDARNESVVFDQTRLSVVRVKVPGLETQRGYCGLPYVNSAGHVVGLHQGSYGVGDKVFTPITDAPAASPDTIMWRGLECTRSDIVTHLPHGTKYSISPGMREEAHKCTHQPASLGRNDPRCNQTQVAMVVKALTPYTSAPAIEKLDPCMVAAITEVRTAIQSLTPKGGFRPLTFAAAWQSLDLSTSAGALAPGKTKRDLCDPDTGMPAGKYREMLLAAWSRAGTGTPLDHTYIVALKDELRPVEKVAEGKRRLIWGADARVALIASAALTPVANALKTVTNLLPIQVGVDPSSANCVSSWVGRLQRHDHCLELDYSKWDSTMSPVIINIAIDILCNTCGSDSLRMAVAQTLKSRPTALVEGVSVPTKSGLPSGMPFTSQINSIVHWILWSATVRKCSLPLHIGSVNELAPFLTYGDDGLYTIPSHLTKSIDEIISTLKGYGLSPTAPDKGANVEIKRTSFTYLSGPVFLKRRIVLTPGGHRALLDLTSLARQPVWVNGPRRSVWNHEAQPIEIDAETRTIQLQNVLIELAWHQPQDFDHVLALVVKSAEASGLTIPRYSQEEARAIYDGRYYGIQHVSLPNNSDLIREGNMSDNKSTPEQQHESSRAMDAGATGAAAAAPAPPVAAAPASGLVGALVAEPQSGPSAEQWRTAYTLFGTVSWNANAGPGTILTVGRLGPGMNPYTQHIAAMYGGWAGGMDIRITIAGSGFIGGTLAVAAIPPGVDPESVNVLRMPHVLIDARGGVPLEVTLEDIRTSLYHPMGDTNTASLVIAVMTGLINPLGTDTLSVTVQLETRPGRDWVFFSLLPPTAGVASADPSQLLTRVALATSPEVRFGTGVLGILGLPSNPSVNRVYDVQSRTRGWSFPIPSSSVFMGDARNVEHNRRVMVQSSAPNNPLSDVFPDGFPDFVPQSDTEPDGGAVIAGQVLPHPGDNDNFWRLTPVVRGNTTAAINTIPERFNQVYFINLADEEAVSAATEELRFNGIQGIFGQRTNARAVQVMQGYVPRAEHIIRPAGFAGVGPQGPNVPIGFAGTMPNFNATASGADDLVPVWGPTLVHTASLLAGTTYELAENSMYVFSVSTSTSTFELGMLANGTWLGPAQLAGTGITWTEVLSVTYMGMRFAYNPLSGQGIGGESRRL

CC(=O)N[C@H]1C(O)O[C@H](CO)[C@@H](O[C@@H]2O[C@H](CO)[C@H](O)[C@H](O)[C@H]2O[C@@H]2O[C@@H](C)[C@@H](O)[C@@H](O)[C@@H]2O)[C@@H]1O[C@@H]1O[C@@H](C)[C@@H](O)[C@@H](O)[C@@H]1O (stereo partly shown) [Le^y]
plate binding assay (ELISA), HRP-streptavidin, A450: sialyl-Le^a (SLe^a), Le^y, Le^x, αGal, H2, H1, SLe^x, A, and B type immobilized synthetic HBGA

CC(=O)N[C@H]1C(O)O[C@H](CO)[C@@H](O[C@@H]2O[C@H](CO)[C@H](O)[C@H](O)[C@H]2O)[C@@H]1O[C@@H]1O[C@@H](C)[C@@H](O)[C@@H](O)[C@@H]1O (stereo partly shown) [Le^x]
plate binding assay (ELISA), HRP-streptavidin, A450: sialyl-Le^a (SLe^a), Le^y, Le^x, αGal, H2, H1, SLe^x, A, and B type immobilized synthetic HBGA

CC(=O)N[C@H]1[C@H]([C@H](O)[C@H](O)CO)O[C@@](O[C@H]2[C@@H](O)[C@@H](CO)O[C@@H](O[C@H]3[C@H](O[C@@H]4O[C@@H](C)[C@@H](O)[C@@H](O)[C@@H]4O)[C@@H](CO)OC(O)[C@@H]3NC(C)=O)[C@@H]2O)(C(=O)O)C[C@@H]1O (stereo partly shown) [sialyl-Le^a]
plate binding assay (ELISA), HRP-streptavidin, A450: sialyl-Le^a (SLe^a), Le^y, Le^x, αGal, H2, H1, SLe^x, A, and B type immobilized synthetic HBGA

CC(=O)N[C@H]1C(O)O[C@H](CO)[C@@H](O[C@@H]2O[C@H](CO)[C@H](O)[C@H](O)[C@H]2O[C@@H]2O[C@@H](C)[C@@H](O)[C@@H](O)[C@@H]2O)[C@@H]1O (stereo partly shown) [H2]
plate binding assay (ELISA), HRP-streptavidin, A450: sialyl-Le^a (SLe^a), Le^y, Le^x, αGal, H2, H1, SLe^x, A, and B type immobilized synthetic HBGA
